Values joined by “and” are separate entries in the source; they are usually repeats but may differ in a detail not shown here. Identical values can stand only once.
How the values were obtained:
[1] = tested on: fungal elements; assay: Mycological cure: search for fungal elements by direct microscopy; assay type: in vivo, human; conditions: PPS
Experimental: (§1) A Phase II clinical pharmacology study was conducted in subjects with onychomycosis of the toenail. The study investigated the pharmacokinetics, efficacy and safety of three different dosing regimens of fosravuconazole. […] The three treatment groups were as follows: • a.
(§2) The efficacy endpoints were: (1) overall clinical efficacy; (2) changes over time in efficacy; (3) confirmation of elements of dermatophytes by direct microscopy; and (4) results of identification of dermatophytes by the polymerase chain reaction (PCR) method.
At screening, fungal elements were found by direct microscopy in all treatment groups.

[2] = tested on: onychomycosis of the toenail; assay: Phase II clinical study: overall clinical efficacy; assay type: in vivo, human
Experimental: as §1, §2
Overall clinical efficacy (cure rate and response rate) at Weeks 48 and 24 after the study treatment initiation for the efficacy analysis population (per protocol set, PPS) are presented in Tables 1 and 2 below. Overall clinical efficacy (cure rate and response rate) at Weeks 48 and 24 after the study treatment initiation for the full analysis set (FAS) are presented in Tables 3 and 4 below.

[3] = 100 mg once daily, Week 24, FAS
[4] = 100 mg once daily, Week 24, PPS
[5] = 100 mg once daily, Week 48, FAS
[6] = 100 mg once daily, Week 48, PPS
[7] = 200 mg pulse treatment, Week 24, FAS
[8] = 200 mg pulse treatment, Week 24, PPS
[9] = 200 mg pulse treatment, Week 48, FAS
[10] = 200 mg pulse treatment, Week 48, PPS
[11] = 400 mg pulse treatment, Week 24, FAS
[12] = 400 mg pulse treatment, Week 24, PPS
[13] = 400 mg pulse treatment, Week 48, FAS
[14] = 400 mg pulse treatment, Week 48, PPS

C[C@@H](c1nc(-c2ccc(C#N)cc2)cs1)[C@@](Cn1cncn1)(OCOP(=O)(O)O)c1ccc(F)cc1F [fosravuconazole, 4-[2-[(1R,2R)-2-(2,4-difluorophenyl)-1-methyl-2-[(phosphonooxy)methoxy]-3-(1H-1,2,4-triazol-1-yl)propyl]-4-thiazolyl]benzo-nitrile]
Absence of fungal elements by direct microscopy (%) ([1]; 100 mg group, At screening): (0.0) % | Absence of fungal elements by direct microscopy, subjects ([1]; 100 mg group, At screening): 0 | Presence of fungal elements by direct microscopy (%) ([1]; 100 mg group, At screening): (100.0) % | Presence of fungal elements by direct microscopy, subjects ([1]; 100 mg group, At screening): 28 | Absence of fungal elements by direct microscopy (%) ([1]; 100 mg group, Week 12): (33.3) % | Absence of fungal elements by direct microscopy, subjects ([1]; 100 mg group, Week 12): 9 | Presence of fungal elements by direct microscopy (%) ([1]; 100 mg group, Week 12): (16.7) % | Presence of fungal elements by direct microscopy, subjects ([1]; 100 mg group, Week 12): 18 | Absence of fungal elements by direct microscopy (%) ([1]; 100 mg group, Week 24): (48.0) % | Absence of fungal elements by direct microscopy, subjects ([1]; 100 mg group, Week 24): 12 | Presence of fungal elements by direct microscopy (%) ([1]; 100 mg group, Week 24): (52.0) % | Presence of fungal elements by direct microscopy, subjects ([1]; 100 mg group, Week 24): 13 | Absence of fungal elements by direct microscopy, subjects ([1]; 100 mg group, Week 48): 18 | Presence of fungal elements by direct microscopy (%) ([1]; 100 mg group, Week 48): (28.0) % | Presence of fungal elements by direct microscopy, subjects ([1]; 100 mg group, Week 48): 7 | Absence of fungal elements by direct microscopy (%) ([1]; 200 mg group, At screening): (0.0) % | Absence of fungal elements by direct microscopy, subjects ([1]; 200 mg group, At screening): 0 | Presence of fungal elements by direct microscopy (%) ([1]; 200 mg group, At screening): (100.0) % | Presence of fungal elements by direct microscopy, subjects ([1]; 200 mg group, At screening): 27 | Absence of fungal elements by direct microscopy (%) ([1]; 200 mg group, Week 12): (50.0) % | Absence of fungal elements by direct microscopy, subjects ([1]; 200 mg group, Week 12): 13 | Presence of fungal elements by direct microscopy (%) ([1]; 200 mg group, Week 12): (50.0) % | Presence of fungal elements by direct microscopy, subjects ([1]; 200 mg group, Week 12): 13 | Absence of fungal elements by direct microscopy (%) ([1]; 200 mg group, Week 24): (48.0) % | Absence of fungal elements by direct microscopy, subjects ([1]; 200 mg group, Week 24): 12 | Presence of fungal elements by direct microscopy (%) ([1]; 200 mg group, Week 24): (52.0) % | Presence of fungal elements by direct microscopy, subjects ([1]; 200 mg group, Week 24): 13 | Absence of fungal elements by direct microscopy, subjects ([1]; 200 mg group, Week 48): 8 | Presence of fungal elements by direct microscopy (%) ([1]; 200 mg group, Week 48): (63.6) % | Presence of fungal elements by direct microscopy, subjects ([1]; 200 mg group, Week 48): 14 | Absence of fungal elements by direct microscopy (%) ([1]; 400 mg group, At screening): (0.0) % | Absence of fungal elements by direct microscopy, subjects ([1]; 400 mg group, At screening): 0 | Presence of fungal elements by direct microscopy (%) ([1]; 400 mg group, At screening): (100.0) % | Presence of fungal elements by direct microscopy, subjects ([1]; 400 mg group, At screening): 33 | Absence of fungal elements by direct microscopy (%) ([1]; 400 mg group, Week 12): (19.4) % | Absence of fungal elements by direct microscopy, subjects ([1]; 400 mg group, Week 12): 6 | Presence of fungal elements by direct microscopy (%) ([1]; 400 mg group, Week 12): (80.6) % | Presence of fungal elements by direct microscopy, subjects ([1]; 400 mg group, Week 12): 25 | Absence of fungal elements by direct microscopy (%) ([1]; 400 mg group, Week 24): (45.2) % | Absence of fungal elements by direct microscopy, subjects ([1]; 400 mg group, Week 24): 14 | Presence of fungal elements by direct microscopy (%) ([1]; 400 mg group, Week 24): (54.8) % | Presence of fungal elements by direct microscopy, subjects ([1]; 400 mg group, Week 24): 17 | Absence of fungal elements by direct microscopy, subjects ([1]; 400 mg group, Week 48): 17 | Presence of fungal elements by direct microscopy (%) ([1]; 400 mg group, Week 48): (37.0) % | Presence of fungal elements by direct microscopy, subjects ([1]; 400 mg group, Week 48): 10 | Cure rate and 95% CI [2, 3]: 0.0 (0.0, 13.2) % | Cured [2, 3]: 0 | Failed [2, 3]: 0 | Improved [2, 3]: 6 | Markedly improved [2, 3]: 20 | Response rate and 95% CI [2, 3]: 76.9 (56.4, 91.0) % | Slightly improved [2, 3]: 0 | Cure rate and 95% CI [2, 4]: 0.0 (0.0, 13.7) % | Cured [2, 4]: 0 | Failed [2, 4]: 0 | Improved [2, 4]: 6 | Markedly improved [2, 4]: 19 | Response rate and 95% CI [2, 4]: 76.0 (54.9, 90.6) % | Slightly improved [2, 4]: 0 | Cure rate and 95% CI [2, 5]: 38.5 (20.3, 59.4) % | Cured [2, 5]: 10 | Failed [2, 5]: 0 | Improved [2, 5]: 1 | Markedly improved [2, 5]: 15 | Response rate and 95% CI [2, 5]: 96.2 (80.4, 99.9) % | Slightly improved [2, 5]: 0 | Cure rate and 95% CI [2, 6]: 40.0% and 40.0 (21.2, 61.3) % | Cured [2, 6]: 10 | Failed [2, 6]: 0 | Improved [2, 6]: 1 | Markedly improved [2, 6]: 14 | Response rate and 95% CI [2, 6]: 96.0% and 96.0 (79.7, 99.8) % | Slightly improved [2, 6]: 0 | Cure rate and 95% CI [2, 7]: 3.6 (0.1, 18.3) % | Cured [2, 7]: 1 | Failed [2, 7]: 0 | Improved [2, 7]: 10 | Markedly improved [2, 7]: 16 | Response rate and 95% CI [2, 7]: 60.7 (40.6, 78.4) % | Slightly improved [2, 7]: 1 | Cure rate and 95% CI [2, 8]: 4.0 (0.2, 20.3) % | Cured [2, 8]: 1 | Failed [2, 8]: 0 | Improved [2, 8]: 9 | Markedly improved [2, 8]: 14 | Response rate and 95% CI [2, 8]: 60.0 (38.7, 78.8) % | Slightly improved [2, 8]: 1 | Cure rate and 95% CI [2, 9]: 32.0 (15.0, 53.5) % | Cured [2, 9]: 8 | Failed [2, 9]: 0 | Improved [2, 9]: 4 | Markedly improved [2, 9]: 13 | Response rate and 95% CI [2, 9]: 84.0 (64.0, 95.4) % | Slightly improved [2, 9]: 0 | Cure rate and 95% CI [2, 10]: 27.3% and 27.3 (10.8, 50.2) % | Cured [2, 10]: 6 | Failed [2, 10]: 0 | Improved [2, 10]: 4 | Markedly improved [2, 10]: 12 | Response rate and 95% CI [2, 10]: 81.8% and 81.8 (59.8, 94.8) % | Slightly improved [2, 10]: 0 | Cure rate and 95% CI [2, 11]: 0.0 (0.0, 11.2) % | Cured [2, 11]: 0 | Failed [2, 11]: 0 | Improved [2, 11]: 11 | Markedly improved [2, 11]: 17 | Response rate and 95% CI [2, 11]: 54.8 (36.1, 72.6) % | Slightly improved [2, 11]: 3 | Cure rate and 95% CI [2, 12]: 0.0 (0.0, 11.2) % | Cured [2, 12]: 0 | Failed [2, 12]: 0 | Improved [2, 12]: 11 | Markedly improved [2, 12]: 17 | Response rate and 95% CI [2, 12]: 54.8 (36.1, 72.6) % | Slightly improved [2, 12]: 3 | Cure rate and 95% CI [2, 13]: 40.7 (22.4, 61.2) % | Cured [2, 13]: 11 | Failed [2, 13]: 0 | Improved [2, 13]: 4 | Markedly improved [2, 13]: 12 | Response rate and 95% CI [2, 13]: 85.2 (66.3, 95.8) % | Slightly improved [2, 13]: 0 | Cure rate and 95% CI [2, 14]: 40.7% and 40.7 (22.4, 61.2) % | Cured [2, 14]: 11 | Failed [2, 14]: 0 | Improved [2, 14]: 4 | Markedly improved [2, 14]: 12 | Response rate and 95% CI [2, 14]: 85.2% and 85.2 (66.3, 95.8) % | Slightly improved [2, 14]: 0
